Experimental data published in US8247351B2, “Insecticidal compositions having improved effect” (Bayer Cropscience AG, priority 2005, dated 2012).

Tests used:
Assay type in all cases: in vivo
[1] = test system: Myzus persicae; assay: Myzus persicae test, Example D (sprayed to runoff, ammonium salt boosting)
Description: (§1) Solvent: 7 parts by weight dimethylformamide
(§2) Emulsifier: 2 parts by weight alkylaryl polyglycol ether
(§3) An appropriate preparation of active ingredient is prepared by mixing 1 part by weight of active ingredient with the stated amounts of solvent and emulsifier and diluting the concentrate with water to the desired concentration. For the application with ammonium salts or phosphonium salts, these salts are added in a concentration of 1000 ppm to the spray liquor.
Paprika plants (Capsicum annum) heavily infested by the green peach aphid (Myzus persicae) are treated by being. sprayed to runoff with the preparation of active ingredient at the desired concentration. After the desired time the destruction in % is ascertained. 100% means that all of the animals have been killed; 0% means that no animals have been killed.

[2] = test system: Aphis gossypii; assay: Aphis gossypii test, Example E (sprayed to runoff, ammonium salt boosting)
Description: as §1, §2
as §3, with “concentrate with emulsifier-containing water to” for “concentrate with water to”
(§4) Cotton plants (Gossypium hirsutum) heavily infested by the cotton aphid (Aphis gossypii) are sprayed to runoff with the preparation of active ingredient at the desired concentration.
(§5) After the desired time the destruction in % is ascertained. 100% means that all of the aphids have been killed; 0% means than no aphids were killed.

[3] = test system: Myzus persicae; assay: Myzus persicae test, Example F (sprayed to runoff, ammonium salt plus penetrant)
Description: as §1, §2
An appropriate preparation of active ingredient is prepared by mixing 1 part by weight of active ingredient with the stated amounts of solvent and emulsifier and diluting the concentrate with water to the desired concentration. For the application with ammonium salts or phosphonium salts and penetrant (rapeseed oil methyl ester 500 EW), they are each added in a concentration of 1000 ppm to the spray liquor.
After the desired time the destruction in % is ascertained. 100% means that all of the animals have been killed; 0% means that no animals have been killed.

[4] = test system: Aphis gossypii; assay: Aphis gossypii test, Example G (sprayed to runoff, ammonium salt plus penetrant)
Description: as §1, §2
An appropriate preparation of active ingredient is prepared by mixing 1 part by weight of active ingredient with the stated amounts of solvent and emulsifier and diluting the concentrate with emulsifier-containing water to the desired concentration. For the application with ammonium salts or phosphonium salts and penetrants (rapeseed oil methyl esters 500 EW), they are each added in a concentration of 1000 ppm a.i. to the spray liquor.
as §4, §5

[5] = 0.8 ppm active ingredient, +AS (1000 ppm)
[6] = 0.8 ppm active ingredient, no additive
[7] = 4 ppm active ingredient, +AS (1000 ppm)
[8] = 4 ppm active ingredient, no additive
[9] = 0.8 ppm active ingredient, +RME (1000 ppm)
[10] = 0.8 ppm active ingredient, +RME +AS (each 1000 ppm)
[11] = 20 ppm active ingredient, +AS (1000 ppm)
[12] = 20 ppm active ingredient, no additive
[13] = 4 ppm active ingredient, +RME (1000 ppm)
[14] = 4 ppm active ingredient, +RME +AS (each 1000 ppm)
[15] = 20 ppm active ingredient, +RME (1000 ppm)
[16] = 20 ppm active ingredient, +RME +AS (each 1000 ppm)

Compound | Degree of destruction/% after 6 days [1, 7] [%] | Degree of destruction/% after 6 days [1, 8] [%] | Degree of destruction/% after 6 days [2, 5] [%] | Degree of destruction/% after 6 days [2, 6] [%] | Degree of destruction/% after 6 days [2, 7] [%] | Degree of destruction/% after 6 days [2, 8] [%] | Degree of destruction/% after 6 days [3, 5] [%] | Degree of destruction/% after 6 days [3, 9] [%] | Degree of destruction/% after 6 days [3, 10] [%] | Degree of destruction/% after 6 days [3, 6] [%] | Degree of destruction/% after 6 days [4, 5] [%] | Degree of destruction/% after 6 days [4, 9] [%] | Degree of destruction/% after 6 days [4, 10] [%] | Degree of destruction/% after 6 days [4, 6] [%] | Degree of destruction/% after 6 days [1, 11] [%] | Degree of destruction/% after 6 days [1, 12] [%] | Degree of destruction/% after 6 days [3, 7] [%] | Degree of destruction/% after 6 days [3, 13] [%] | Degree of destruction/% after 6 days [3, 14] [%] | Degree of destruction/% after 6 days [3, 8] [%] | other results
COc1cc(C)cc(C)c1C1=C(O)C2(CCC(OC)CC2)OC1=O (stereo not drawn) [Example I-2-a-2] | 90 | 65 | 70 | 30 | 95 | 85 | 25 | 15 | 99 | 0 | 70 | 50 | 95 | 30 |  |  |  |  |  |  | Degree of destruction/% after 6 days [1, 5]: 25%; Degree of destruction/% after 6 days [1, 6]: 0%
COc1cc(C)cc(C)c1-c1c(O)c(C)c(-c2ccccn2)oc1=O [Example I-4-a-1] | 45 | 0 |  |  | 40 | 0 | 5 | 0 | 40 | 0 | 15 | 0 | 45 | 0 | 95 | 75 |  |  |  |  | 
Cc1cc(Cl)cc(C)c1C1=C(O)C2(CCC3(CC2)OCCO3)NC1=O [Example I-1-a-4] | 65 | 40 | 65 | 15 | 85 | 60 | 5 | 0 | 20 | 0 | 65 | 30 | 80 | 15 | 98 | 95 | 65 | 95 | 98 | 40 | 
Cc1ccc(-c2ccc(Cl)cc2)cc1C1=C(O)C(C)(C)OC1=O [Example I-2-a-3] |  |  |  |  |  |  |  |  |  |  |  |  |  |  | 15 | 0 |  |  |  |  | Degree of destruction/% after 6 days [2, 11]: 30%; Degree of destruction/% after 6 days [2, 12]: 0%; Degree of destruction/% after 6 days [3, 11]: 15%; Degree of destruction/% after 6 days [3, 15]: 35%; Degree of destruction/% after 6 days [3, 16]: 80%; Degree of destruction/% after 6 days [3, 12]: 0%; Degree of destruction/% after 6 days [4, 7]: 5%; Degree of destruction/% after 6 days [4, 13]: 0%; Degree of destruction/% after 6 days [4, 14]: 15%; Degree of destruction/% after 6 days [4, 8]: 0%; Degree of destruction/% after 6 days [4, 11]: 30%; Degree of destruction/% after 6 days [4, 15]: 0%; Degree of destruction/% after 6 days [4, 16]: 65%; Degree of destruction/% after 6 days [4, 12]: 0%
COC1CCC2(CC1)NC(=O)C(c1c(Cl)cc(Cl)c(C)c1Cl)=C2O (stereo not drawn) [Example I-1-a-12] |  |  | 45 | 5 | 95 | 65 |  |  |  |  | 45 | 45 | 65 | 5 | 65 | 55 | 5 | 0 | 50 | 0 | Degree of destruction/% after 6 days [3, 11]: 65%; Degree of destruction/% after 6 days [3, 15]: 70%; Degree of destruction/% after 6 days [3, 16]: 98%; Degree of destruction/% after 6 days [3, 12]: 55%
COc1cc(C)cc(Cl)c1C1=C(O)C2(CCC(OC)CC2)OC1=O (stereo not drawn) [Example I-2-a-4] |  |  | 45 | 10 | 90 | 70 |  |  |  |  | 45 | 45 | 70 | 10 | 80 | 60 | 0 | 0 | 70 | 0 | 
Cc1cc(Br)cc(C)c1-c1c(O)c(C)c(-c2ccccn2)oc1=O [Example I-4-a-3] | 70 | 5 | 40 | 0 | 70 | 25 | 5 | 20 | 98 | 0 | 40 | 0 | 80 | 0 | 85 | 40 |  |  |  |  | 
CO[C@H]1CC[C@]2(CC1)NC(=O)C(c1c(C)cc(I)cc1C)=C2O [Example I-1-a-7] | 80 | 40 |  |  | 90 | 55 | 10 | 35 | 75 | 0 | 45 | 50 | 75 | 35 |  |  |  |  |  |  | Degree of destruction/% after 6 days [2, 11]: 99%; Degree of destruction/% after 6 days [2, 12]: 85%; Degree of destruction/% after 6 days [4, 7]: 90%; Degree of destruction/% after 6 days [4, 13]: 85%; Degree of destruction/% after 6 days [4, 14]: 95%; Degree of destruction/% after 6 days [4, 8]: 55%
Cc1cc(C)c(C2=C(O)C3(CCC(C)CC3)NC2=O)c(C)c1 (stereo not drawn) [Example I-1-a-8] |  |  | 40 | 0 |  |  | 55 | 60 | 80 | 20 | 40 | 20 | 60 | 0 |  |  |  |  |  |  | Degree of destruction/% after 6 days [1, 5]: 55%; Degree of destruction/% after 6 days [1, 6]: 20%
Cc1ccc(-c2ccc(Cl)cc2)cc1C1=C(O)C(C)(C)C(C)(C)OC1=O [Example I-10-a-1] |  |  |  |  |  |  |  |  |  |  |  |  |  |  | 25 | 0 | 5 | 20 | 55 | 0 | Degree of destruction/% after 6 days [2, 11]: 45%; Degree of destruction/% after 6 days [2, 12]: 0%; Degree of destruction/% after 6 days [3, 11]: 25%; Degree of destruction/% after 6 days [3, 15]: 65%; Degree of destruction/% after 6 days [3, 16]: 99%; Degree of destruction/% after 6 days [3, 12]: 0%; Degree of destruction/% after 6 days [4, 11]: 45%; Degree of destruction/% after 6 days [4, 15]: 45%; Degree of destruction/% after 6 days [4, 16]: 70%; Degree of destruction/% after 6 days [4, 12]: 0%
COC1CCC2(CC1)NC(=O)C(c1cc(C)ccc1Br)=C2O (stereo not drawn) [Example I-1-a-11] |  |  |  |  | 35 | 5 |  |  |  |  |  |  |  |  | 70 | 0 | 5 | 55 | 99 | 0 | Degree of destruction/% after 6 days [2, 11]: 80%; Degree of destruction/% after 6 days [2, 12]: 45%; Degree of destruction/% after 6 days [4, 7]: 35%; Degree of destruction/% after 6 days [4, 13]: 45%; Degree of destruction/% after 6 days [4, 14]: 80%; Degree of destruction/% after 6 days [4, 8]: 5%
